Our source for the TGI and GI50 values is PubChem BioAssay (NCI).

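Five compound concentrations were applied to cells in 96-well plates for 48 hours; endpoints were derived by simple linear interpolation of the resulting dose-response curve. Here, GI50 denotes the concentration required for 50% inhibition of growth. TGI marks complete inhibition of growth.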

Test systems include RPMI-8226 leukemia; HCC-2998 colon; M14 melanoma; MALME-3M melanoma; HL-60(TB) leukemia; CCRF-CEM leukemia; SK-MEL-2 melanoma; OVCAR-4 ovarian; TK-10 renal; LOX IMVI melanoma.
What all share (experiment): NCI tumour cell line growth inhibition, 48 h

For the compound `CN1CCN(CCNc2ccc(CO)c3sc4ccccc4c(=O)c23)CC1`, the TGI with RPMI-8226 leukemia was 23.4 µM; in the experiment on HCC-2998 colon, 18.6 µM; in the experiment with M14 melanoma it was 12 µM; in the experiment with MALME-3M melanoma, 12 µM; with HL-60(TB) leukemia, 15.7 µM; in the experiment on CCRF-CEM leukemia it was greater than 48 µM. Moreover, the TGI in the experiment on SK-MEL-2 melanoma came out at 20.9 µM; in the experiment on OVCAR-4 ovarian it was 13.3 µM; in the experiment on TK-10 renal, 20.1 µM; in the experiment with LOX IMVI melanoma it was 8.27 µM. Moreover, the GI50 in the experiment on LOX IMVI melanoma is 2.59 µM.

In the case of `COc1cc(C2=NN(c3ccc(S(N)(=O)=O)cc3)C(c3ccc(Cl)cc3)C2)cc(OC)c1OC` (stereo not drawn), the GI50 is 3.7 µM in the experiment on RPMI-8226 leukemia; 6.93 µM in the experiment on HCC-2998 colon; 4.8 µM in the experiment on M14 melanoma; 11.4 µM in the experiment with MALME-3M melanoma; 3.94 µM with HL-60(TB) leukemia; 4.81 µM in the experiment on CCRF-CEM leukemia. Further, the GI50 is 3.35 µM in the experiment on SK-MEL-2 melanoma, 3.16 µM in the experiment on OVCAR-4 ovarian, 3.27 µM in the experiment with TK-10 renal and 5.15 µM in the experiment with LOX IMVI melanoma. Also, the TGI with RPMI-8226 leukemia, in the experiment on HCC-2998 colon, in the experiment on M14 melanoma, in the experiment on MALME-3M melanoma, in the experiment with HL-60(TB) leukemia and in the experiment on CCRF-CEM leukemia was greater than 100 µM in each case. Also, the TGI in the experiment on SK-MEL-2 melanoma was 14.1 µM; in the experiment on OVCAR-4 ovarian it was 9.46 µM; with TK-10 renal, greater than 100 µM; with LOX IMVI melanoma it was greater than 100 µM.

Consider `COc1ccc(-c2nnc(N3CCN(C(=O)CN4CCN(c5ccc(Cl)cc5)CC4)CC3)nc2-c2ccc(OC)cc2)cc1`, for which the GI50 is 5.19 µM with RPMI-8226 leukemia; 56.8 µM in the experiment on HCC-2998 colon; 35.8 µM in the experiment with M14 melanoma; 21.5 µM in the experiment on MALME-3M melanoma; 10.7 µM with HL-60(TB) leukemia; 48 µM in the experiment on CCRF-CEM leukemia. In addition, the GI50 in the experiment on SK-MEL-2 melanoma was 35.5 µM; in the experiment with OVCAR-4 ovarian it was greater than 100 µM; in the experiment on TK-10 renal, 58.5 µM; with LOX IMVI melanoma it was 15.6 µM. Further, the TGI in the experiment on RPMI-8226 leukemia is greater than 100 µM; in the experiment with HCC-2998 colon, greater than 100 µM; with M14 melanoma it was greater than 100 µM; in the experiment with MALME-3M melanoma, greater than 100 µM; with HL-60(TB) leukemia it was 52.3 µM; with CCRF-CEM leukemia it was greater than 100 µM. The TGI in the experiment with SK-MEL-2 melanoma, with OVCAR-4 ovarian, in the experiment on TK-10 renal and with LOX IMVI melanoma was greater than 100 µM in each case.

As for `Oc1c(I)cc(-c2nc3ccccc3s2)cc1CN(Cc1ccccn1)Cc1ccccn1`, the GI50 is 0.385 µM with RPMI-8226 leukemia; 0.43 µM with HCC-2998 colon; 0.357 µM in the experiment on M14 melanoma; 0.288 µM with MALME-3M melanoma; 0.323 µM in the experiment with HL-60(TB) leukemia; 0.35 µM in the experiment on CCRF-CEM leukemia. For the same compound, the GI50 in the experiment on SK-MEL-2 melanoma is 0.362 µM; with OVCAR-4 ovarian, 0.231 µM; with TK-10 renal, 0.46 µM; in the experiment with LOX IMVI melanoma, 0.305 µM. Besides, the TGI with RPMI-8226 leukemia was 3.03 µM; with HCC-2998 colon it was 43.9 µM; with M14 melanoma it was 13.1 µM; with MALME-3M melanoma, 4.79 µM; in the experiment on HL-60(TB) leukemia, greater than 100 µM; in the experiment on CCRF-CEM leukemia it was greater than 100 µM. The TGI with SK-MEL-2 melanoma is 17.8 µM; in the experiment with OVCAR-4 ovarian, 5.58 µM; in the experiment on TK-10 renal, greater than 100 µM; in the experiment on LOX IMVI melanoma, 1.38 µM.

In the case of `CCCCCC(O)(CCCCC)CCCCCCCCC1=C(O)c2[nH]c(=O)ccc2C(=O)C1=O`, the TGI with RPMI-8226 leukemia worked out at 25.3 µM; in the experiment on HCC-2998 colon it was 27.8 µM; in the experiment on M14 melanoma it was 21.6 µM; in the experiment with MALME-3M melanoma it was 13.9 µM; in the experiment on HL-60(TB) leukemia, 23.6 µM; with CCRF-CEM leukemia, 48.1 µM. Besides, the TGI amounted to 13.9 µM with SK-MEL-2 melanoma, 7.06 µM in the experiment with OVCAR-4 ovarian and 24 µM in the experiment on LOX IMVI melanoma.

Turning to `O=S(=O)(NCCNc1cc(-c2cn(-c3ccccc3)nc2-c2cccc(O)c2)ccn1)c1ccc(Cl)cc1`, the GI50 was 2.59 µM in the experiment on RPMI-8226 leukemia; 1.99 µM in the experiment on HCC-2998 colon; 2.54 µM in the experiment with M14 melanoma; 2.16 µM in the experiment on MALME-3M melanoma; 2.42 µM in the experiment with HL-60(TB) leukemia; 3.4 µM in the experiment with CCRF-CEM leukemia. In addition, the GI50 with SK-MEL-2 melanoma is 2.4 µM; in the experiment with OVCAR-4 ovarian it was 4.37 µM; with TK-10 renal it was 4.25 µM; with LOX IMVI melanoma, 1.76 µM. The TGI was found to be 7.75 µM with RPMI-8226 leukemia; 4.14 µM in the experiment on HCC-2998 colon; 8.61 µM with M14 melanoma; 5.47 µM with MALME-3M melanoma; 5.98 µM with HL-60(TB) leukemia; 28.6 µM with CCRF-CEM leukemia. Moreover, the TGI with SK-MEL-2 melanoma is 5.71 µM; with OVCAR-4 ovarian it was greater than 100 µM; with TK-10 renal it was 23.1 µM; in the experiment with LOX IMVI melanoma, 3.56 µM.

As for `C[C@]12C3CC[C@@]4(CO)C[C@]3(CCC1[C@](C)(C(=O)O)CC[C@@H]2O)CC4=O` (stereo partly drawn), the GI50 in the experiment with RPMI-8226 leukemia, with HCC-2998 colon, in the experiment on M14 melanoma, in the experiment on MALME-3M melanoma, in the experiment on HL-60(TB) leukemia and with CCRF-CEM leukemia was greater than 100 µM each time. Further, the GI50 in the experiment with SK-MEL-2 melanoma, in the experiment on OVCAR-4 ovarian, in the experiment on TK-10 renal and with LOX IMVI melanoma was greater than 100 µM each time. Also, the TGI in the experiment on RPMI-8226 leukemia, with HCC-2998 colon, in the experiment with M14 melanoma, in the experiment with MALME-3M melanoma, with HL-60(TB) leukemia and in the experiment on CCRF-CEM leukemia was greater than 100 µM in each case. In addition, the TGI with SK-MEL-2 melanoma, in the experiment with OVCAR-4 ovarian, with TK-10 renal and with LOX IMVI melanoma was greater than 100 µM in each case.

As for `COc1cc(-c2cc(/C=C3\C(=O)Nc4ccccc43)[nH]n2)cc(OC)c1OC`, the GI50 in the experiment on RPMI-8226 leukemia was 1.77 µM; in the experiment with HCC-2998 colon it was 13.1 µM; in the experiment with M14 melanoma, 2.29 µM; in the experiment on MALME-3M melanoma it was 2.28 µM; in the experiment with HL-60(TB) leukemia, 2.62 µM; in the experiment on CCRF-CEM leukemia, 2.28 µM. Moreover, the results for the GI50 in the experiment on SK-MEL-2 melanoma, with OVCAR-4 ovarian and with LOX IMVI melanoma were 2.27 µM, 1.91 µM and 2.43 µM, respectively. In addition, the TGI turned out to be 4.37 µM in the experiment on RPMI-8226 leukemia; 29.4 µM in the experiment on HCC-2998 colon; 7.17 µM with M14 melanoma; 7.47 µM in the experiment with MALME-3M melanoma; 7.66 µM with HL-60(TB) leukemia; 6.96 µM with CCRF-CEM leukemia. The TGI came to 5.57 µM in the experiment on SK-MEL-2 melanoma, 8.98 µM in the experiment on OVCAR-4 ovarian and 7.94 µM in the experiment on LOX IMVI melanoma.
